{
  "source": "patent US20050228050A1",
  "about": "“Novel stable crystals of substituted phenylpropionic acid derivative and process for producing the same” (priority 2001, published 2005)",
  "key": {"[1]": {"test": "Hygroscopicity of crystals", "type": "physicochemical", "conditions": "stated without described test"}, "[2]": {"test": "Differential thermal analysis (DTA) and thermogravimetry (TG) of crystals", "type": "physicochemical", "procedure": "Differential Thermal Analysis (DTA) and Thermogravimetry (TG)\nThe thermal stability of crystals was compared by using apparatus for thermal analysis (SII: TG/DTA6200). […] With the new type crystals, the endothermic phenomenon due to transition was seen from 131.4° C. and the endothermic peak due to melting was shown at 132.0° C."}},
  "data": [
    {"molecule": "CC[C@@H](Cc1ccc(OC)c(C(=O)NCc2ccc(Oc3ccc(F)cc3)cc2)c1)C(=O)O", "note": "[new type crystals, (S)-2-[[3-[N-[4-[(4-fluorophenoxy)phenyl]methyl]-carbamoyl]-4-methoxyphenyl]methyl]butanoic acid]", "values": [
      {"measurement": "hygroscopicity", "setting": "[1]", "result": "no hygroscopicity"},
      {"measurement": "weight change in thermogravimetry", "setting": "[2]; TG/DTA6200 thermal analysis, FIG. 3 and 4", "result": "no weight change"},
      {"measurement": "thermal stability of crystals", "setting": "[2]; conclusion from DTA/TG comparison of new and old type crystals", "result": "thermally stable"}
    ]}
  ]
}
